Source: ChEMBL document CHEMBL5537127, “Design and synthesis of novel hederagonic acid analogs as potent anti-inflammatory compounds capable of protecting against LPS-induced acute lung injury” (Eur J Med Chem, 2024)

Key:
[1] = Cytotoxicity against mouse RAW264.7 cells assessed as cell viability at 40 uM incubated for 24 hrs by MTT assay relative to control; format: toxicity, cell-based; conditions: read-out: Activity
RAW264.7 [2] = experiment: Anti-inflammatory activity against LPS-induced mouse RAW264.7 cells assessed as inhibition of NO production at 10 uM preincubated for 2 hrs followed by LPS addition and measured after 24 hrs by Griess reagent-based microplate reader analysis relative to control; format: functional; parameters: scale not given: the % may be the effect or the level left; conditions: time 26 hrs
RAW264.7 [3] = experiment: Anti-inflammatory activity against LPS-induced mouse RAW264.7 cells assessed as inhibition of NO production at 20 uM preincubated for 2 hrs followed by LPS addition and measured after 24 hrs by Griess reagent-based microplate reader analysis relative to control; format: functional; parameters: scale not given: the % may be the effect or the level left; conditions: time 26 hrs

Structure (SMILES) | viability at 24 h, 40 µM [1] | Activity (RAW264.7 [2]) | Activity (RAW264.7 [3])
CC1(C)CC[C@]2(C(=O)OCc3ccccc3)CC[C@]3(C)C(=CC[C@@H]4[C@@]5(C)C/C(=C/c6ccsc6)C(=O)[C@@](C)(CO)[C@@H]5CC[C@]43C)[C@@H]2C1 | 66.9% | – | –
CC1(C)CC[C@]2(C(=O)OCc3ccccc3)CC[C@]3(C)C(=CC[C@@H]4[C@@]5(C)C/C(=C/c6ccc(Br)cc6)C(=O)[C@@](C)(CO)[C@@H]5CC[C@]43C)[C@@H]2C1 | 92.9% | 6.09% | 10.62%
CC1(C)CC[C@]2(C(=O)OCc3ccccc3)CC[C@]3(C)C(=CC[C@@H]4[C@@]5(C)CCC(=O)[C@@](C)(COC(=O)CCN6CCCCC6)[C@@H]5CC[C@]43C)[C@@H]2C1 | 3.82% | – | –
CC1(C)CC[C@]2(C(=O)OCc3ccccc3)CC[C@]3(C)C(=CC[C@@H]4[C@@]5(C)C/C(=C/c6ccccc6[N+](=O)[O-])C(=O)[C@@](C)(CO)[C@@H]5CC[C@]43C)[C@@H]2C1 | 65% | 1.44% | 7.94%
CC1(C)CC[C@]2(C(=O)OCc3ccccc3)CC[C@]3(C)C(=CC[C@@H]4[C@@]5(C)C/C(=C/c6cnccn6)C(=O)[C@@](C)(CO)[C@@H]5CC[C@]43C)[C@@H]2C1 | 3.34% | 4.56% | 5.02%
CC1(C)CC[C@]2(C(=O)OCc3ccccc3)CC[C@]3(C)C(=CC[C@@H]4[C@@]5(C)CCC(=O)[C@@](C)(COC(=O)CCC6CCCC6)[C@@H]5CC[C@]43C)[C@@H]2C1 | 105% | 0.34% | 0.76%
CC1(C)CC[C@]2(C(=O)OCc3ccccc3)CC[C@]3(C)C(=CC[C@@H]4[C@@]5(C)C/C(=C/c6cccs6)C(=O)[C@@](C)(CO)[C@@H]5CC[C@]43C)[C@@H]2C1 | 72.1% | – | –
COCC(=O)OC[C@]1(C)C(=O)CC[C@@]2(C)[C@H]1CC[C@]1(C)[C@@H]2CC=C2[C@@H]3CC(C)(C)CC[C@]3(C(=O)OCc3ccccc3)CC[C@]21C | 105% | 42.74% | 61.15%
CC1(C)CC[C@]2(C(=O)OCc3ccccc3)CC[C@]3(C)C(=CC[C@@H]4[C@@]5(C)C/C(=C/c6cscn6)C(=O)[C@@](C)(CO)[C@@H]5CC[C@]43C)[C@@H]2C1 | 85% | – | –
CC1(C)CC[C@]2(C(=O)OCc3ccccc3)CC[C@]3(C)C(=CC[C@@H]4[C@@]5(C)CCC(=O)[C@@](C)(COC(=O)CCCC[C@@H]6CCSS6)[C@@H]5CC[C@]43C)[C@@H]2C1 | 119% | 29.81% | 56.28%
CC1(C)CC[C@]2(C(=O)OCc3ccccc3)CC[C@]3(C)C(=CC[C@@H]4[C@@]5(C)C/C(=C/c6ccccc6Br)C(=O)[C@@](C)(CO)[C@@H]5CC[C@]43C)[C@@H]2C1 | 92.2% | 5.33% | 12.61%
CC1(C)CC[C@]2(C(=O)OCc3ccccc3)CC[C@]3(C)C(=CC[C@@H]4[C@@]5(C)CCC(=O)[C@@](C)(COC(=O)CCc6ccccc6)[C@@H]5CC[C@]43C)[C@@H]2C1 | 76.1% | – | –
CC1(C)CC[C@]2(C(=O)OCc3ccccc3)CC[C@]3(C)C(=CC[C@@H]4[C@@]5(C)C/C(=C/c6cccc(Br)c6)C(=O)[C@@](C)(CO)[C@@H]5CC[C@]43C)[C@@H]2C1 | 94% | 3.77% | 3.82%
CC[C@H](C)[C@H](NC(=O)CCCC[C@@H]1CCSS1)C(=O)OC[C@]1(C)C(=O)CC[C@@]2(C)[C@H]1CC[C@]1(C)[C@@H]2CC=C2[C@@H]3CC(C)(C)CC[C@]3(C(=O)OCc3ccccc3)CC[C@]21C | 96% | 17.94% | 25.3%
CC1(C)CC[C@]2(C(=O)O)CC[C@]3(C)C(=CC[C@@H]4[C@@]5(C)CCC(=O)[C@@](C)(CO)[C@@H]5CC[C@]43C)[C@@H]2C1 | 109% | – | –
CC1(C)CC[C@]2(C(=O)OCc3ccccc3)CC[C@]3(C)C(=CC[C@@H]4[C@@]5(C)C/C(=C/c6cccc([N+](=O)[O-])c6)C(=O)[C@@](C)(CO)[C@@H]5CC[C@]43C)[C@@H]2C1 | 109% | 1.09% | 9.38%
CC1(C)CC[C@]2(C(=O)OCc3ccccc3)CC[C@]3(C)C(=CC[C@@H]4[C@@]5(C)CCC(=O)[C@@](C)(COC(=O)CC#N)[C@@H]5CC[C@]43C)[C@@H]2C1 | 93.1% | 40.79% | 57.99%
